Assay results published in patent US10577373B2, “TYK2 inhibitors and uses thereof” (Nimbus Lakshmi, Inc., priority 2017, dated 2020).
Read-outs that look alike come from different tables or passages of the source.

Experiments:
[1] = system: IL-12 induced STAT4 phophorylation mediated by Tyk2/JAK2 (heterodimeric complex); assay: IL-12 Induced pSTAT4 in Human PBMC; type: cell-based; settings: 1.7 ng/mL IL-12
Excerpt: The IL-12 Induced pSTAT4 assay evaluates the inhibition of IL-12 induced STAT4 phophorylation mediated by Tyk2/JAK2 (heterodimeric complex).

[2] = system: GM-CSF induced STAT5 phosphorylation mediated by the JAK2/JAK2 homdimeric complex; assay: GM-CSF Induced pSTAT5 in Human PBMC
Excerpt: Human PBMC are isolated from buffy coat and are stored frozen for assays as needed.

[3] = Homo sapiens, PBMC, 20 min, read-out: PBMC_GMCSF_pSTAT5 IC50, human PBMC, GM-CSF 5 ng/mL for 20 minutes, pSTAT5

Row | SMILES | IC50 [1] | IC50 [2, 3] | IC50 ([2]; Homo sapiens, PBMC, 20 min, read-out: PBMC_GMCSF_pSTAT5 IC50) | IC50 ([2]; read-out: PBMC_GMCSF_pSTAT5 IC50, human PBMC, GM-CSF 5 ng/mL for 20 minutes, pSTAT5)
1 | CNc1cc(-c2cn(C(C)C)c3ncccc23)nc2c(C(=O)N[C@@H]3COC[C@@H]3O)cnn12 [I-842, N-((3R,4R)-4-hydroxytetrahydrofuran-3-yl)-5-(1-isopropyl-1H-pyrrolo[2,3-b]pyridin-3-yl)-7-(methylamino)pyrazolo[1,5-a]pyrimidine-3-carboxamide] | < 100 nM | > 50000 nM | – | –
2 | CNc1cc(Nc2cccnc2OCCOC)nc2c(C(=O)N[C@H]3C[C@H]3F)cnn12 [I-220] | < 100 nM | > 12500 nM | – | –
3 | CNc1cc(Nc2cccn(-c3ccc(C4CC4)nn3)c2=O)nc2c(C(=O)NC3CCC3)cnn12 [I-240] | < 100 nM | > 2500 nM | – | –
4 | CNc1cc(Nc2cc(Cl)cn(-c3ccc(C4CC4)nn3)c2=O)nc2c(C(=O)N[C@H]3C[C@H]3F)cnn12 [I-334] | < 100 nM | > 50000 nM | – | –
5 | CNc1cc(Nc2cccnc2OC)nc2c(C(=O)N[C@H]3C[C@@H]3O)cnn12 [I-438, N-((1S,2S)-2-hydroxycyclopropyl)-5-((2-methoxypyridin-3-yl)amino)-7-(methylamino)pyrazolo[1,5-a]pyrimidine-3-carboxamide] | < 100 nM | > 50000 nM | – | –
6 | CNc1cc(Nc2cccnc2OC2CC2)nc2c(C(=O)NCC(C)(C)CO)cnn12 [I-350] | < 100 nM | > 50000 nM | – | –
7 | CNc1cc(Nc2cccnc2OC)nc2c(C(=O)NOC(C)(C)C)cnn12 [I-612, N-(tert-butoxy)-5-((2-methoxypyridin-3-yl)amino)-7-(methylamino) pyrazolo[1,5-a]pyrimidine-3-carboxamide] | […] | – | > 50000 nM | –
8 | CNc1cc(Nc2cccn([C@H]3CC[C@](C)(OC)CC3)c2=O)nc2c(C(=O)N[C@H]3C[C@H]3F)cnn12 [I-362] | < 100 nM | > 50000 nM | – | –
9 | CNc1cc(Nc2cccn(-c3cnco3)c2=O)nc2c(C(=O)N[C@@H]3C[C@@H]3F)cnn12 [I-762] | < 100 nM | > 2500 nM | – | –
10 | CNc1cc(Nc2cccnc2OC)nc2c(C(=O)NC3CCC3O)cnn12 (stereo not drawn) [I-390, N-(2-hydroxycyclobutyl)-5-((2-methoxypyridin-3-yl)amino)-7-(methylamino) pyrazolo[1,5-a]pyrimidine-3-carboxamide] | < 100 nM | > 50000 nM | – | –
11 | CNc1cc(Nc2cc(C)cnc2OC2CC2)nc2c(C(=O)NC3CC3)cnn12 [I-277] | 100 to 500 nM | > 50000 nM | – | –
12 | CNc1cc(Nc2cccn(-c3cc(C)on3)c2=O)nc2c(C(=O)NC3CC3)cnn12 [I-162] | < 100 nM | > 2500 nM | – | –
13 | CNc1cc(Nc2cccn(CCOC)c2=O)nc2c(C(=O)NC3CCC3)cnn12 [I-269] | < 100 nM | > 50000 nM | – | –
14 | CNc1cc(Nc2cccnc2OC)nc2c(C(=O)N[C@@H]3CC[C@H]3O)cnn12 [I-396] | < 100 nM | > 50000 nM | – | –
15 | CNc1cc(Nc2cc(C)cn(-c3ccn(C)n3)c2=O)nc2c(C(=O)N[C@H]3C[C@H]3F)cnn12 [I-250] | < 100 nM | > 12500 nM | – | –
16 | CNc1cc(Nc2cccnc2OC2CC2)nc2c(C(=O)NCC(C)CO)cnn12 (stereo not drawn) [I-435] | 100 to 500 nM | > 50000 nM | – | –
17 | CNc1cc(-c2cn(C(C)C)c3ncccc23)nc2c(C(N)=O)cnn12 [I-222, 5-(1-isopropyl-1H-pyrrolo[2,3-b]pyridin-3-yl)-7-(methylamino)pyrazolo[1,5-a]pyrimidine-3-carboxamide] | < 100 nM | > 2500 nM | – | –
18 | CNc1cc(Nc2cccc3ocnc23)nc2c(C(=O)N[C@H]3COC[C@H]3O)cnn12 [I-834] | 100 to 500 nM | > 50000 nM | – | –
19 | CNc1cc(Nc2cccc(N3CCOCC3)n2)nc2c(C(=O)N[C@H]3C[C@H]3F)cnn12 [I-590] | < 100 nM | > 12500 nM | – | –
20 | CNc1cc(Nc2cccn(-c3nc(C)co3)c2=O)nc2c(C(=O)N[C@@H]3CC[C@@H]3O)cnn12 [I-706] | < 100 nM | > 50000 nM | – | –
21 | CNc1cc(Nc2cccn(-c3ccccn3)c2=O)nc2c(C(=O)N[C@H]3C[C@H]3F)cnn12 [I-681] | < 100 nM | > 12500 nM | – | –
22 | CNc1cc(Nc2cccn(-c3cccnc3)c2=O)nc2c(C(=O)N[C@@H]3C[C@@H]3F)cnn12 [I-748] | < 100 nM | > 2500 nM | – | –
23 | CNc1cc(-c2cn(C(C)C)c3ncccc23)nc2c(C(=O)N[C@H]3C[C@H](O)C3)cnn12 [I-630, N-((1r,3r)-3-hydroxycyclobutyl)-5-(1-isopropyl-1H-pyrrolo[2,3-b]pyridin-3-yl)-7-(methylamino)pyrazolo[1,5-a]pyrimidine-3-carboxamide] | < 100 nM | > 2500 nM | – | –
24 | [2H]C([2H])([2H])Oc1ncc(C)cc1Nc1cc(NC)n2ncc(C(=O)N[C@H]3C[C@H]3F)c2n1 [I-259] | < 100 nM | > 12500 nM | – | –
25 | [2H]C([2H])([2H])Oc1ncccc1Nc1cc(NC)n2ncc(C(=O)N[C@H]3CC[C@H]3O)c2n1 (stereo in doubt) [I-399, N-((1 S,2R)-2-hydroxycyclobutyl)-5-((2-(methoxy-d3)pyridin-3-yl)amino)-7-(methylamino) pyrazolo[1,5-a]pyrimidine-3-carboxamide] | < 100 nM | – | – | > 12500 nM
26 | CNc1cc(Nc2cccc([C@@H]3CCCOC3)n2)nc2c(C(=O)N[C@H]3C[C@H]3F)cnn12 [I-562] | < 100 nM | > 50000 nM | – | –

Row | SMILES | IC50 [1] | IC50 [2, 3] | IC50 ([2]; Homo sapiens, PBMC, 20 min, read-out: PBMC_GMCSF_pSTAT5 IC50) | IC50 ([2]; read-out: PBMC_GMCSF_pSTAT5 IC50, human PBMC, GM-CSF 5 ng/mL for 20 minutes, pSTAT5)
27 | CNc1cc(Nc2cc(C)cn(-c3cnn(C)c3)c2=O)nc2c(C(=O)NC3CC3)cnn12 [I-233] | < 100 nM | > 50000 nM | – | –
28 | CNc1cc(-c2cn(C3CC3)c3ncccc23)nc2c(C(=O)N[C@@H]3C[C@@H]3F)cnn12 [I-961, 5-(1-cyclopropyl-1H-pyrrolo[2,3-b]pyridin-3-yl)-N-((1R,2S)-2-fluorocyclopropyl)-7-(methylamino)pyrazolo[1,5-a]pyrimidine-3-carboxamide] | < 100 nM | > 50000 nM | – | –
29 | CNc1cc(Nc2cccn(-c3cccc(C(C)(C)O)n3)c2=O)nc2c(C(=O)NC3CCC3)cnn12 [I-156] | < 100 nM | > 12500 nM | – | –
30 | CNC(=O)c1nscc1Nc1cc(NC)n2ncc(C(=O)N[C@@H]3C[C@@H]3F)c2n1 [I-914] | < 100 nM | > 50000 nM | – | –
31 | CNc1cc(Nc2cccc(N3CCCC3=O)n2)nc2c(C(=O)NC3CCC3)cnn12 [I-94] | < 100 nM | > 50000 nM | – | –
32 | CNc1cc(Nc2cc(Cl)cn(C3CCOCC3)c2=O)nc2c(C(=O)N[C@H]3CC[C@@H]3O)cnn12 [I-712] | < 100 nM | > 12500 nM | – | –
33 | CNc1cc(Nc2cc(C)cn(-c3cnn(C)c3)c2=O)nc2c(C(=O)NC3CCC3)cnn12 [I-234] | < 100 nM | > 2500 nM | – | –
34 | CNc1cc(Nc2cccn(-c3ccon3)c2=O)nc2c(C(=O)NC3CCC3)cnn12 [I-158] | < 100 nM | > 50000 nM | – | –
35 | CNc1cc(Nc2cccn(C3CCOCC3)c2=O)nc2c(C(=O)NC3CC3)cnn12 [I-329] | < 100 nM | > 2500 nM | – | –
36 | CNc1cc(Nc2cc(Cl)cn(-c3ccn(C4CC4)n3)c2=O)nc2c(C(=O)NC3CC3)cnn12 [I-331] | < 100 nM | > 12500 nM | – | –
37 | CNc1cc(Nc2cccn(-c3ncco3)c2=O)nc2c(C(=O)NC3CC3)cnn12 [I-715] | < 100 nM | > 2500 nM | – | –
38 | CNc1cc(Nc2cccn(-c3cc(C)n(C)n3)c2=O)nc2c(C(=O)NC3CC3)cnn12 [I-138] | < 100 nM | > 50000 nM | – | –
39 | CCOc1ccc(-n2cccc(Nc3cc(NC)n4ncc(C(=O)N[C@H]5C[C@H]5F)c4n3)c2=O)nn1 [I-117] | < 100 nM | > 2500 nM | – | –
40 | CNc1cc(Nc2cccnc2OC2CC2)nc2c(C(=O)N[C@@H]3CC[C@@H]3O)cnn12 [I-401] | < 100 nM | > 12500 nM | – | –
41 | CNc1cc(Nc2cccnc2OC)nc2c(C(=O)N[C@H]3CC[C@H]3O)cnn12 [I-429] | < 100 nM | > 50000 nM | – | –
42 | CNc1cc(Nc2cccn(C3CCOCC3)c2=O)nc2c(C(=O)N[C@H]3C[C@H]3F)cnn12 [I-330] | < 100 nM | > 2500 nM | – | –
43 | CNc1cc(Nc2cccn(C(C)C)c2=O)nc2c(C(=O)N[C@@H]3CC[C@H]3O)cnn12 [I-918] | < 100 nM | > 50000 nM | – | –
44 | CNc1cc(Nc2cccn([C@H]3CCCOC3)c2=O)nc2c(C(=O)NC3CC3)cnn12 [I-352] | < 100 nM | > 50000 nM | – | –
45 | CNc1cc(Nc2cccn(-c3ccc(OC)cn3)c2=O)nc2c(C(=O)N[C@H]3C[C@H]3F)cnn12 [I-265] | < 100 nM | > 12500 nM | – | –
46 | CNc1cc(Nc2cccn(C3CCN(CCF)CC3)c2=O)nc2c(C(=O)N[C@H]3C[C@H]3F)cnn12 [I-570] | < 100 nM | > 50000 nM | – | –
47 | CNc1cc(Nc2cccn([C@H]3CC[C@H](OC)CC3)c2=O)nc2c(C(=O)N[C@H]3CC[C@H]3O)cnn12 [I-539] | < 100 nM | > 50000 nM | – | –
48 | CNc1cc(Nc2cccnc2OC)nc2c(C(=O)N[C@H]3C[C@H]3F)cnn12 [I-110] | < 100 nM | > 50000 nM | – | –
49 | CNc1cc(Nc2cccn(-c3ccn(C4CC4)n3)c2=O)nc2c(C(=O)N[C@@H]3C[C@@H]3F)cnn12 (stereo in doubt) [I-106, 5-((1-(1-cyclopropyl-1H-pyrazol-3-yl)-2-oxo-1,2-dihydropyridin-3-yl)amino)-N-((1R,2S)-2-fluorocyclopropyl)-7-(methylamino)pyrazolo[1,5-a]pyrimidine-3-carboxamide] | < 100 nM | > 12500 nM | – | –
50 | CNc1cc(-c2cn(C(C)C)c3ncccc23)nc2c(C(=O)N[C@@H]3C[C@@H]3F)cnn12 (stereo in doubt) [I-225, N-((1R,2S)-2-fluorocyclopropyl)-5-(1-isopropyl-1H-pyrrolo[2,3-b]pyridin-3-yl)-7-(methylamino)pyrazolo[1,5-a]pyrimidine-3-carboxamide] | < 100 nM | > 50000 nM | – | –
51 | CNc1cc(Nc2cccn([C@H]3CC[C@H](OC)CC3)c2=O)nc2c(C(=O)N[C@H]3C[C@H]3F)cnn12 [I-344] | < 100 nM | > 12500 nM | – | –
